Here are results for ten compounds from patent US20240415840A1, “BICYCLIC AMINES AS CDK2 INHIBITORS” (Incyte Corporation, priority 2023, published 2024).

The target in series [1] is T1, CDK2/Cyclin E1 (Homo sapiens, UniProt P24941).
T1 construct: enzyme activity assays utilize full-length human CDK2; GST (N); purchased Carna 04-165; host or cells: baculovirus expression system
In words: CDK2/Cyclin E1 HTRF enzyme activity assay. Type of series: biochemical. As to conditions: 1 mM ATP. Here is the method: CDK2/Cyclin E1 enzyme activity assays utilize full-length human CDK2 co-expressed as N-terminal GST-tagged protein with FLAG-Cyclin E1 in a baculovirus expression system (Carna Product Number 04-165). Assays were conducted in white 384-well polystyrene plates in a final reaction volume of 8 μL. CDK2/Cyclin E1 (0.25 nM) was incubated with the compounds of the Examples (40 nL serially diluted in DMSO) in the presence of ATP (50 μM or 1 mM) and 50 nM ULight™-labeled eIF4E-binding protein 1 (THR37/46) peptide (PerkinElmer) in assay buffer (containing 50 mM HEPES pH 7.5, 1 mM EGTA, 10 mM MgCl2, 2 mM DTT, 0.05 mg/mL BSA, and 0.01% Tween 20) for 60 minutes at room temperature. The reactions were stopped by the addition of EDTA and Europium-labeled anti-phospho-4E-BP1 antibody (PerkinElmer), for a final concentration of 15 mM and 1.5 nM, respectively. HTRF signals were read after 1 hour at room temperature on a PHERAstar FS plate reader (BMG Labtech). Data was analyzed with Genedata Screener software using a three or four parameter dose response curve to determine IC50 for each compound.

In series [2] the test system is Caco-2 cells. Kind of series: In vitro permeability studies using Caco-2 cells. Format: in vitro ADME.
The nature of series [3]: In vitro permeability studies using Caco-2 cells. Type of series: in vitro ADME. The note with it: human, A-B.
Series [4] in a line: In vitro rat plasma unbound fraction. Type of series: in vitro ADME.
The target of series [5] is T2, P-gp (Homo sapiens, UniProt P08183).
T2 construct: in vitro permeability studies using Caco-2 cells; endogenous in cells; host or cells: Caco-2 cells
In words: Efflux transporter substrate assessment (Caco-2 studies), P-gp. Format: in vitro ADME.

Series [6] addresses T3, BCRP (Homo sapiens, UniProt Q9UNQ0).
T3 construct: in vitro permeability studies using Caco-2 cells; endogenous in cells; host or cells: Caco-2 cells
T3 sequence (Q9UNQ0 1-655): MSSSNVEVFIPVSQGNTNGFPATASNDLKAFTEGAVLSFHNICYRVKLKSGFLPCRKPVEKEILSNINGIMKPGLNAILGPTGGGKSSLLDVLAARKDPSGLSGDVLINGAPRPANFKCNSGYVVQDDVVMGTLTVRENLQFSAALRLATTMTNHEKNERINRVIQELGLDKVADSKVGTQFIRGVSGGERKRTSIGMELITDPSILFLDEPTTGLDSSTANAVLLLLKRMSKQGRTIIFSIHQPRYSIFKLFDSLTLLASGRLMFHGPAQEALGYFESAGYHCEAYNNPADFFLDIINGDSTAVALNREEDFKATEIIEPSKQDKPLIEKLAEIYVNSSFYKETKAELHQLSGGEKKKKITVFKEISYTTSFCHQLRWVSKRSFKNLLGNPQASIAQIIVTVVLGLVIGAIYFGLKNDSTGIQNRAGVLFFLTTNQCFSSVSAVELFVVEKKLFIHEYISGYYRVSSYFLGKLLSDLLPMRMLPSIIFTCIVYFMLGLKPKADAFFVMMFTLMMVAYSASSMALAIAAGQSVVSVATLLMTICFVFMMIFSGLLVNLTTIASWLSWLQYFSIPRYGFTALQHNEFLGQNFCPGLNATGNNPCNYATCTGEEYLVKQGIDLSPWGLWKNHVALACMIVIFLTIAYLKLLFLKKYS
Kind of series: Efflux transporter substrate assessment (Caco-2 studies), BCRP. Type of series: in vitro ADME.

The nature of series [7]: In vivo rat CNS protocol: brain, CSF and plasma concentrations after IV dosing. Here is the method:
The brain, CSF, and plasma concentrations of the compound of Example 1 (8-isopropoxy-7-(1H-pyrazol-4-yl)-N-(tetrahydro-2H-pyran-4-yl)-[1,2,4]triazolo[1,5-c]pyrimidin-2-amine) were determined in rats after IV dosing. The compound of Example 1 was formulated in 10% dimethylacetamide in acidified saline. Male rats (n=4) were given an IV bolus of the compound of Example 1 at 2.0 mg/kg, followed by an IV infusion at 1.2 mg/kg/h for 4 hours. Blood samples were collected at 2 hours and 4 hours in tubes containing EDTA as anticoagulant and centrifuged to obtain plasma. At 4 hours, brain and CSF samples were also collected. The CSF samples were mixed with blank rat plasma (1:1 v/v) to minimize adsorption of the compound of Example 1 to the collection device. Brain, CSF, and plasma samples were frozen and concentrations of the compound of Example 1 were determined by LC-MS/MS.

Where [8] appears, read: male rats (n=4), IV infusion, 4 h, mean ± SD.

“And” between values parts separate entries of the source, which are not always exact repeats. Identical values can stand only once. Like-named read-outs stand apart in the source and are kept apart here.

T2 sequence (P08183 whole entry): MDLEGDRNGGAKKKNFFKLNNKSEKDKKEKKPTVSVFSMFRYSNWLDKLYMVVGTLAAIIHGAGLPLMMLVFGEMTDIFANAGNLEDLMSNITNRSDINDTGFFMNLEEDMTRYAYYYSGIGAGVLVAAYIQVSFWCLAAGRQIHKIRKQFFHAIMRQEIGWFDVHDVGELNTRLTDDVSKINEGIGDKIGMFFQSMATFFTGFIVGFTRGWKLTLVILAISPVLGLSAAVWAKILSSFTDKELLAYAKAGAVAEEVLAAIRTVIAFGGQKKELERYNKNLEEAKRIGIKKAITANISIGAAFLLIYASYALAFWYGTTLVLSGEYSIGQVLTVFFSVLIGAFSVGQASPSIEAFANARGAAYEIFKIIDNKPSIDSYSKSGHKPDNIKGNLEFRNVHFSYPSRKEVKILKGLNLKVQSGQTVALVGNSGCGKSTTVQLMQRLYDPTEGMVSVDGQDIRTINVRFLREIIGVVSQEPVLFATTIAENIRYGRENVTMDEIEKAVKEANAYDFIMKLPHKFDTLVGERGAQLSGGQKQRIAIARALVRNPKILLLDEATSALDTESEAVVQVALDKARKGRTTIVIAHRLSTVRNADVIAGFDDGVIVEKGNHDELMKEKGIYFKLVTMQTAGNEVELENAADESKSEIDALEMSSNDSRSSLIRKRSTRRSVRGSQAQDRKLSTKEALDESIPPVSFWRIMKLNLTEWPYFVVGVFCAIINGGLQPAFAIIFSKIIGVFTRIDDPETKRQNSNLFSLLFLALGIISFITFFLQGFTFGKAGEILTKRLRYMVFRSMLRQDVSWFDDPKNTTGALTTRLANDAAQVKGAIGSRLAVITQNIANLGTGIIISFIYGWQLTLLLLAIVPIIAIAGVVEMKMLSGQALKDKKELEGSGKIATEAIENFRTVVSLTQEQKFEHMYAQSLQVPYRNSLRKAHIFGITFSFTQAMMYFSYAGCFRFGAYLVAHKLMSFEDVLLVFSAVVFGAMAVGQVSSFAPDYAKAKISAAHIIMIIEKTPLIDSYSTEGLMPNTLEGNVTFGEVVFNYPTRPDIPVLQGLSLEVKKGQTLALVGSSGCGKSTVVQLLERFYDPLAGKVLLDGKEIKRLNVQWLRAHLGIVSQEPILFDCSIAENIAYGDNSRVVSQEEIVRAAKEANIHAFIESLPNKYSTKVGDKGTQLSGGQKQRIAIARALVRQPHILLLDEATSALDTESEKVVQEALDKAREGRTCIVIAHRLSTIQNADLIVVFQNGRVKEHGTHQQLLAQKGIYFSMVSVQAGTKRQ

In turn, `CC(Oc1c(-c2cn[nH]c2)ccn2nc(NC3CCOCC3)nc12)C(F)(F)F` (single isomer, unassigned) [Example 3] came in with an IC50 in series [1] of at most 10 nM.

In turn, `CC(Oc1c(-c2cn[nH]c2)ccn2nc(NC3CCOCC3)nc12)C(F)(F)F` (single isomer, unassigned) [Example 4] came in with an IC50 in series [1] of at most 10 nM.

As to `CC(Oc1c(-c2cn[nH]c2)ccn2nc(NC3CCOCC3)nc12)C(F)F` (single isomer, unassigned) [Example 5], the IC50 in series [1] is at most 10 nM.

As to `CC(Oc1c(-c2cn[nH]c2)ccn2nc(NC3CCOCC3)nc12)C(F)F` (single isomer, unassigned) [Example 6], the IC50 in series [1] was at most 10 nM.

As to `CC(Oc1c(-c2cn[nH]c2)ncn2nc(NC3CCOCC3)nc12)C(F)(F)F` (single isomer, unassigned) [Example 7], the half-maximal inhibitory concentration (IC50) in series [1] was at most 10 nM.

`CC(Oc1c(-c2cn[nH]c2)ncn2nc(NC3CCOCC3)nc12)C(F)(F)F` (single isomer, unassigned) [Example 8] gave a concentration for half-maximal inhibition (IC50) in series [1] of at most 10 nM.

Consider `CC(Oc1c(-c2cn[nH]c2)ncn2nc(NC3CCOCC3)nc12)C(F)F` (single isomer, unassigned) [Example 9], for which the concentration for half-maximal inhibition (IC50) in series [1] is at most 10 nM.

In turn, `CC(Oc1c(-c2cn[nH]c2)ncn2nc(NC3CCOCC3)nc12)C(F)F` (single isomer, unassigned) [Example 10] showed an IC50 in series [1] of at most 10 nM.

In turn, `CC(C)Oc1c(-c2cn[nH]c2)ncn2nc(NC3CCOCC3)nc12` [Example 1, 8-Isopropoxy-7-(1H-pyrazol-4-yl)-N-(tetrahydro-2H-pyran-4-yl)-[1,2,4]triazolo[1,5-c]pyrimidin-2-amine] displayed an IC50 in series [1] of at most 10 nM. Further, in series [2], the “Caco-2 permeability (in words)” value is on record as “highly permeable”. Besides, the apical-to-basolateral permeability (Papp A→B) in series [3] is 16 ×10⁻⁶ cm/s. The compound further registered a fraction unbound in series [4] of 0.57. For the same compound, in series [5], the “substrate of P-gp efflux transporter” value is “not a substrate”. In series [6], the “substrate of BCRP efflux transporter” value is “not a substrate”. In addition, the “Brain/Plasma (%)” value in series [7] (4 h, individual rats 1001-1004) is 60% and 89% and 73%. Also, the “CSF/unbound plasma concentration (%)” value in series [7] (4 h, individual rats 1001-1004) was 37% and 42% and 38%. For the same compound, the “Plasma free (unbound) concentration, 4 h” value in series [7] (calculated using rat plasma in vitro unbound fraction, 4 h, individual rats 1001-1004) is 1.45 µM and 1.22 µM and 1.70 µM. Further, the “Plasma total concentration, 4 h, mean” value in series [7] (male rats (n=4), IV bolus 2.0 mg/kg then IV infusion 1.2 mg/kg/h for 4 h, 4 h, mean ± SD) is 2.41 ± 0.46 µM. For the same compound, the “Brain concentration, 4 h, mean” value in series [7] (setting [8]) is 1740 ± 370 nM. In addition, the “CSF concentration, 4 h, mean” value in series [7] (setting [8]) came to 0.579 ± 0.062 µM. Moreover, the “Plasma total concentration, 2 h” value in series [7] (male rats, IV bolus 2.0 mg/kg then IV infusion 1.2 mg/kg/h for 4 h, 2 h, individual rats 1001-1004) is 1.44 µM and 1.41 µM and 1.71 µM. In addition, in series [7] (male rats, IV bolus 2.0 mg/kg then IV infusion 1.2 mg/kg/h for 4 h, 4 h, individual rats 1001-1004), the “Plasma total concentration, 4 h” value was 2.55 µM and 2.14 µM and 2.98 µM. For the same compound, the concentration at 4 h in series [7] (male rats, IV infusion, 4 h, individual rats 1001-1004, read-out: Brain concentration, 4 h) is 1520 nM and 1910 nM and 2170 nM; in series [7] (male rats, IV infusion, 4 h, individual rats 1001-1004, read-out: CSF concentration, 4 h), 541 nM and 517 nM and 653 nM; in series [7] (male, rat, CSF, iv, male rats (n=4), IV infusion, 4 h, mean ± SD, read-out: CSF concentration, 4 h, mean), 579 ± 62 nM; in series [7] (male, rat, CSF, iv, male rats, IV infusion, 4 h, individual rats 1001-1004, read-out: CSF concentration, 4 h), 604 nM; in series [7] (male, rat, brain, iv, male rats (n=4), IV infusion, 4 h, mean ± SD, read-out: Brain concentration, 4 h, mean), 1740 ± 370 nM; in series [7] (male, rat, brain, iv, male rats, IV infusion, 4 h, individual rats 1001-1004, read-out: Brain concentration, 4 h) it was 1360 nM. The concentration at 4 h in series [7] (male, rat, plasma (unbound), intravenous, calculated using rat plasma in vitro unbound fraction, 4 h, individual rats 1001-1004, read-out: Plasma free (unbound) concentration, 4 h) is 1110 nM; in series [7] (male, rat, plasma (unbound), intravenous, calculated using rat plasma in vitro unbound fraction, 4 h, mean ± SD, read-out: Plasma free (unbound) concentration, 4 h, mean), 1370 ± 260 nM; in series [7] (male, rat, plasma, intravenous, male rats (n=4), IV bolus 2.0 mg/kg then IV infusion 1.2 mg/kg/h for 4 h, 4 h, mean ± SD, read-out: Plasma total concentration, 4 h, mean), 2410 ± 460 nM; in series [7] (male, rat, plasma, intravenous, male rats, IV bolus 2.0 mg/kg then IV infusion 1.2 mg/kg/h for 4 h, 4 h, individual rats 1001-1004, read-out: Plasma total concentration, 4 h), 1950 nM. For the same compound, the Kp at 4 h came out at 0.54 in series [7] (male, rat, CSF / unbound plasma, intravenous, 4 h, individual rats 1001-1004, read-out: CSF/unbound plasma concentration (%)); 0.43 in series [7] (male, rat, CSF / unbound plasma, intravenous, 4 h, mean, read-out: CSF/unbound plasma concentration (%), mean); 0.7 in series [7] (male, rat, brain / plasma, intravenous, 4 h, individual rats 1001-1004, read-out: Brain/Plasma (%)); 0.73 in series [7] (male, rat, brain / plasma, intravenous, 4 h, mean, read-out: Brain/Plasma (%), mean). For the same compound, the concentration at 2 h turned out to be 1460 ± 180 nM in series [7] (male, rat, plasma, intravenous, male rats (n=4), IV bolus 2.0 mg/kg then IV infusion 1.2 mg/kg/h for 4 h, 2 h, mean ± SD, read-out: Plasma total concentration, 2 h, mean) and 1270 nM in series [7] (male, rat, plasma, intravenous, male rats, IV bolus 2.0 mg/kg then IV infusion 1.2 mg/kg/h for 4 h, 2 h, individual rats 1001-1004, read-out: Plasma total concentration, 2 h). Moreover, the “penetration across the rat blood-brain barrier (in words)” value in series [7] (rat, IV infusion) is listed as “readily penetrates across the rat blood-brain barrier”.

The compound `CC(C)Oc1c(-c2cn[nH]c2)ccn2nc(NC3CCOCC3)nc12` [Example 2, 8-Isopropoxy-7-(1H-pyrazol-4-yl)-N-(tetrahydro-2H-pyran-4-yl)-[1,2,4]triazolo[1,5-a]pyridin-2-amine] returned a 50% inhibitory concentration (IC50) in series [1] of at most 10 nM.
